The pIC50 is the negative decadic logarithm of the IC50, by convention in mol/L.

The target in this assay is ACL (Homo sapiens (Human), UniProt P53396). Nature of the assay: ADP-Glo Assay. Background: ADP-Glo first removes unused ATP, then detects ADP through luciferase.

pIC50: −log10 of the molar value.

Sequence of ACL (P53396 other isoform, or with tags, fused parts or gaps isoform P53396-2): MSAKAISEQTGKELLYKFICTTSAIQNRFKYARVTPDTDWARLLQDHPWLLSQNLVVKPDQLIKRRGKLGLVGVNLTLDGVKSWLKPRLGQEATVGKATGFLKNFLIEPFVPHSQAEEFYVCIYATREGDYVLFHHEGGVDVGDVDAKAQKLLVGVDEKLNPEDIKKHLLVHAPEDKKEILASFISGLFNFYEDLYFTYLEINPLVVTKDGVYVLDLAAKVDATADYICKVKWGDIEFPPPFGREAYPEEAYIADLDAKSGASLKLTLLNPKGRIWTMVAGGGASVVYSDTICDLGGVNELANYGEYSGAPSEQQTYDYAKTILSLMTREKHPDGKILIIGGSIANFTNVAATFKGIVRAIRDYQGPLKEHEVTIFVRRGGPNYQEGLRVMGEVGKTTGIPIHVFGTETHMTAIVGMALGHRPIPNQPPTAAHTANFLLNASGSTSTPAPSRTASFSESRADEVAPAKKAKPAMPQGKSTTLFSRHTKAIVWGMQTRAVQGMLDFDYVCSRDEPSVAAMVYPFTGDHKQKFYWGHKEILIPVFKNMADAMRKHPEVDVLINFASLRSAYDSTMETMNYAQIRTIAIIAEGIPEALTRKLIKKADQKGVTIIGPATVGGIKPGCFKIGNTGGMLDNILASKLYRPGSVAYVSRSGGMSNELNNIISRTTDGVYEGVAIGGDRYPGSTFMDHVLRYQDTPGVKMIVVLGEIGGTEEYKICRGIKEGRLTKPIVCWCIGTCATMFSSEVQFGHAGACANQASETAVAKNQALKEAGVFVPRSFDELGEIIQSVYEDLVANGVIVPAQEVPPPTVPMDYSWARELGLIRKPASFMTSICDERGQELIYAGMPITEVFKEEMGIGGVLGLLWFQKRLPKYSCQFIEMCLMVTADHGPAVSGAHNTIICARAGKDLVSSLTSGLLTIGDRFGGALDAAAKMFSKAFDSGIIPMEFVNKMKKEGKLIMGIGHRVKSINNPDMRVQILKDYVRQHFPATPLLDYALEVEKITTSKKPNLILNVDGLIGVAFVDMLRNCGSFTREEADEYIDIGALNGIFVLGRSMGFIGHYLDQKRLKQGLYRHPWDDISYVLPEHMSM
Protocol: Compounds of the present invention were evaluated in an ADP-GLO assay as follows:
b) Add 0.1 μL diluted cpd solution to assay plate, each dose with 2 replicates c) Centrifuge 1000 RPM for 1 min d) Add 5 μL ACL working solution to 384-well assay plate, centrifuge 1000 RPM for 1 min e) Incubate at 25° C. for 15 min f) Add 5 μL substrate working solution to initiate reaction
h) Reference final conc: 30 uM starting Conc, 3× dilution, 11+0 points. Test cpd conc: 30/100 uM starting Conc, 3× dilution, 11+0 points. i) Incubate at 25° C. for 60 min j) Add 10 μL ADP Glo reagent, centrifuge 1000 RPM for 1 min k) Incubate at 25° C. for 40 min l) Add 20 μL kinase detection reagent, centrifuge 1000 RPM for 1 min m) Incubate at 25° C. for 40 min n) Read on Envision for US LUM as RLU

For `O=S(=O)(Nc1cc(-c2ccccc2)c(F)cc1F)c1cc(Cl)cc(-c2nn[nH]n2)c1` [I-72, 3-chloro-N-(2,4-difluoro-5-phenylphenyl)-5-(2H-1,2,3,4-tetrazol-5-yl)benzene-1-sulfonamide], the pIC50 is 4.70 to 6.30.
The result for `COc1ccc(-c2ccccc2)cc1NS(=O)(=O)c1cc(-c2nn[nH]n2)cc(Cl)c1O` [I-73, 3-chloro-2-hydroxy-N-(2-methoxy-5-phenylphenyl)-5-(2H-1,2,3,4-tetrazol-5-yl)benzene-1-sulfonamide] reads 4.70 to 6.30; that for `N#Cc1cc(Cl)cc(S(=O)(=O)Nc2cc(-c3ccccc3)c(F)cc2F)c1` [I-75, 3-chloro-5-cyano-N-(2,4-difluoro-5-phenylphenyl) benzene-1-sulfonamide], 4.70 to 6.30; that for `O=C(O)c1cc(Cl)c(O)c(S(=O)(=O)Nc2ccc(F)cc2F)c1` [I-76, 3-chloro-5-[(2,4-difluorophenyl)sulfamoyl]-4-hydroxybenzoic Acid], 4.70 to 6.30.
The result for `O=C(O)COc1c(Cl)cc(Cl)cc1S(=O)(=O)Nc1cc(-c2ccccc2)c(F)cc1F` [I-77, 2-(2,4-dichloro-6-(N-(4,6-difluoro-[1,1′-biphenyl]-3-yl)sulfamoyl)phenoxy)acetic Acid] reads 4.70 to 6.30; that for `COC(=O)COc1c(Br)cc(Cl)cc1S(=O)(=O)Nc1cc(-c2ccccc2)ccc1F` [I-78, Methyl 2-(2-bromo-4-chloro-6-(N-(4-fluoro-[1,1′-biphenyl]-3-yl)sulfamoyl)phenoxy)acetate], 4.70 to 6.30; that for `COC(=O)COc1c(Cl)cc(Cl)cc1S(=O)(=O)Nc1cc(-c2ccccc2)c(F)cc1F` [I-79, Methyl 2-[2,4-dichloro-6-[(2,4-difluoro-5-phenylphenyl)sulfamoyl]phenoxy]acetate], 4.70 to 6.30.
Take `O=S(=O)(Nc1cc(-c2ccccc2)ccc1F)c1cc(Cl)cc(Cl)c1OCC(F)(F)F` [I-85, 3,5-dichloro-N-(2-fluoro-5-phenylphenyl)-2-(2,2,2-trifluoroethoxy)benzene-1-sulfonamide]: the negative logarithm of the IC50 (pIC50) is 4.70 to 6.30.
`O=S(=O)(Nc1sccc1-c1ccccc1)c1cc(Cl)cc(Cl)c1O` [I-89, 3,5-dichloro-2-hydroxy-N-(3-phenylthiophen-2-yl) benzenesulfonamide] gave a pIC50 of 4.70 to 6.30.
Then `O=S(=O)(Nc1cc(-c2ccccc2)c(F)cc1F)c1cccc(-c2nn[nH]n2)c1` [I-96, N-(2,4-difluoro-5-phenylphenyl)-3-(2H-1,2,3,4-tetrazol-5-yl)benzene-1-sulfonamide], with 4.70 to 6.30; and `O=S(=O)(Nc1cc(-c2ccccc2)ccc1F)c1cc(Cl)cc(Cl)c1Oc1nccs1` [I-97, 3,5-dichloro-N-(2-fluoro-5-phenylphenyl)-2-(1,3-thiazol-2-yloxy)benzene-1-sulfonamide], with 4.70 to 6.30; and `C=CCN(c1cc(-c2ccccc2)ccc1F)S(=O)(=O)c1cc(C(=O)OC)cc(Cl)c1O` [I-108, Methyl 3-(N-allyl-N-(4-fluoro-[1,1′-biphenyl]-3-yl)sulfamoyl)-5-chloro-4-hydroxybenzoate], with 4.70 to 6.30.
Then `Cn1ncc(-c2ccccc2)c1NS(=O)(=O)c1cc(Cl)cc(Cl)c1O` [I-109, 3,5-dichloro-2-hydroxy-N-(1-methyl-4-phenyl-1H-pyrazol-5-yl)benzenesulfonamide], with 4.70 to 6.30.
Then `COC(=O)c1cc(Cl)c(OCC(=O)O)c(S(=O)(=O)Nc2cc(-c3ccccc3)ccc2F)c1` [I-114, 2-[2-chloro-6-([4-fluoro-[1,1-biphenyl]-3-yl]sulfamoyl)-4-(methoxycarbonyl)phenoxy]acetic Acid], with 4.70 to 6.30; and `CCC(=O)Oc1c(Cl)cc(C(=O)OC)cc1S(=O)(=O)Nc1cc(-c2ccccc2)ccc1F` [I-120, Methyl 3-chloro-5-([4-fluoro-[1,1-biphenyl]-3-yl]sulfamoyl)-4-(propanoyloxy)benzoate], with 6.30 to 7.30.
The molecule `CCC(=O)Oc1ccccc1S(=O)(=O)Nc1cc(-c2ccccc2)ccc1F` [I-121, 2-[(2-fluoro-5-phenylphenyl)sulfamoyl]phenyl Propanoate] showed a pIC50 of 4.70 to 6.30.
The result for `O=S(=O)(Nc1cc(-c2ccccc2)ccc1F)c1cc(Cl)cc(Cl)c1OC1COC1` [I-122, 3,5-dichloro-N-(4-fluoro-[1,1′-biphenyl]-3-yl)-2-(oxetan-3-yloxy)benzenesulfonamide] reads 4.70 to 6.30.
Then `O=S(=O)(NCc1cc(-c2ccccc2)ccc1F)c1cc(Cl)cc(Cl)c1O` [I-125, 3,5-dichloro-N-((4-fluoro-[1,1′-biphenyl]-3-yl)methyl)-2-hydroxybenzenesulfonamide], with 4.70 to 6.30; and `Cc1c(C(=O)O)cc(Cl)c(O)c1S(=O)(=O)Nc1cc(-c2ccccc2)c(F)cc1F` [I-132, 5-chloro-3-([4,6-difluoro-[1,1-biphenyl]-3-yl]sulfamoyl)-4-hydroxy-2-methylbenzoic Acid], with 4.70 to 6.30; and `O=C(O)c1cc(Cl)cc(S(=O)(=O)Nc2cc(-c3ccccc3)c(F)cc2F)c1` [I-147, 3-chloro-5-(N-(4,6-difluoro-[1,1′-biphenyl]-3-yl)sulfamoyl)benzoic Acid], with 4.70 to 6.30.
Then `O=C(Nc1cc(-c2ccccc2)c(F)cc1F)c1cc(C(=O)N2CCCC2)cc(Cl)c1O` [I-150, 3-chloro-N-(4,6-difluoro-[1,1′-biphenyl]-3-yl)-2-hydroxy-5-(pyrrolidine-1-carbonyl)benzamide], with 4.70 to 6.30; and `NC(=O)COc1c(Cl)cc(Cl)cc1S(=O)(=O)Nc1cc(-c2ccccc2)ccc1F` [I-151, 2-(2,4-dichloro-6-(N-(4-fluoro-[1,1′-biphenyl]-3-yl)sulfamoyl)phenoxy)acetamide], with 4.70 to 6.30.
`CNC(=O)COc1c(Cl)cc(Cl)cc1S(=O)(=O)Nc1cc(-c2ccccc2)ccc1F` [I-152, 2-(2,4-dichloro-6-(N-(4-fluoro-[1,1′-biphenyl]-3-yl)sulfamoyl)phenoxy)-N-methylacetamide] gave a pIC50 of 4.70 to 6.30.
In turn, `O=C(COc1c(Cl)cc(Cl)cc1S(=O)(=O)Nc1cc(-c2ccccc2)ccc1F)N1CCC1` [I-153, 2-(2-(azetidin-1-yl)-2-oxoethoxy)-3,5-dichloro-N-(4-fluoro-[1,1′-biphenyl]-3-yl)benzenesulfonamide] showed a negative logarithm of the IC50 (pIC50) of 4.70 to 6.30.
Then `COc1c(Br)cc(C(=O)N2CCC2)cc1S(=O)(=O)Nc1cc(-c2ccccc2)ccc1F` [I-154, 5-(azetidine-1-carbonyl)-3-bromo-N-(4-fluoro-[1,1′-biphenyl]-3-yl)-2-methoxybenzenesulfonamide], with 4.70 to 6.30; and `O=C(O)c1cc(Cl)c(O)c(C(=O)Nc2cc(-c3ccccc3)c(F)cc2F)c1` [I-155, 3-chloro-5-((4,6-difluoro-[1,1′-biphenyl]-3-yl)carbamoyl)-4-hydroxybenzoic Acid], with 4.70 to 6.30; and `O=S(=O)(Nc1cc(-c2ccccc2)c(F)cc1F)c1cc(Cl)ccc1F` [I-156, 5-chloro-N-(4,6-difluoro-[1,1′-biphenyl]-3-yl)-2-fluorobenzenesulfonamide], with 4.70 to 6.30.
The result for `CC(=O)NCCNC(=O)c1cc(Cl)c(O)c(S(=O)(=O)Nc2cc(-c3ccccc3)c(F)cc2F)c1` [I-161, N-(2-[[3-chloro-5-([4,6-difluoro-[1,1-biphenyl]-3-yl]sulfamoyl)-4-hydroxyphenyl]formamido]ethyl)acetamide] reads 4.70 to 6.30; that for `CC(C)Oc1ccc(F)cc1NS(=O)(=O)c1cc(Cl)cc(Cl)c1O` [I-163], 4.70 to 6.30; that for `O=S(=O)(Nc1cc(-n2nnnc2C2CC2)ccc1F)c1cc(Cl)cc(Cl)c1O` [I-164], 4.70 to 6.30.
Then `CC(C)Cc1csc(NS(=O)(=O)c2cc(Cl)cc(Cl)c2O)c1C(=O)N1CCOCC1` [I-165], with 4.70 to 6.30.
Turning to `COc1ccc(CN(C)S(=O)(=O)c2cc(Cl)cc(Cl)c2O)cc1` [I-166], the pIC50 is 4.70 to 6.30.
On to `O=S(=O)(N[C@H]1C[C@H](c2ccc(F)cc2)C1)c1cc(Cl)cc(Cl)c1O` [I-167], for which the negative logarithm of the IC50 (pIC50) is 4.70 to 6.30.
The molecule `O=S(=O)(NCc1nc(-c2cccc(F)c2)no1)c1cc(Cl)cc(Cl)c1O` [I-168] gave a negative logarithm of the IC50 (pIC50) of 4.70 to 6.30.
Then `CC(C)n1ncc2cc(NS(=O)(=O)c3cc(Cl)cc(Cl)c3O)ccc21` [I-169], with 4.70 to 6.30; and `O=S(=O)(Nc1cnn(-c2ccccc2)c1)c1cc(Cl)cc(Cl)c1O` [I-170], with 4.70 to 6.30.
The result for `O=S(=O)(Nc1ccc(OCc2ccccc2)cc1)c1cc(Cl)cc(Cl)c1O` [I-171] reads 4.70 to 6.30.
As for `CC(C)(C)Cc1nc2cc(NS(=O)(=O)c3cc(Cl)cc(Cl)c3O)ccc2o1` [I-172], the pIC50 was 4.70 to 6.30.
Then `CC(C)(CNS(=O)(=O)c1cc(Cl)cc(Cl)c1O)c1cccs1` [I-173], with 4.70 to 6.30; and `NC(=O)c1sc2ccccc2c1NS(=O)(=O)c1cc(Cl)cc(Cl)c1O` [I-174], with 4.70 to 6.30; and `CC(=O)N1CCCN(c2ccc(F)cc2NS(=O)(=O)c2cc(Cl)cc(Cl)c2O)CC1` [I-175], with 4.70 to 6.30.
The result for `O=S(=O)(NC1CCN(c2nc3ccccc3s2)CC1)c1cc(Cl)cc(Cl)c1O` [I-176] reads 4.70 to 6.30; that for `O=S(=O)(Nc1cccc(-n2nccn2)c1)c1cc(Cl)cc(Cl)c1O` [I-177], 4.70 to 6.30; that for `CC(C)NC(=O)c1ccc(NS(=O)(=O)c2cc(Cl)cc(Cl)c2O)cc1` [I-178], 4.70 to 6.30.
For the molecule `CN(C)C(=O)C(NS(=O)(=O)c1cc(Cl)cc(Cl)c1O)c1ccccc1` (centres unmarked) [I-179], the pIC50 is 4.70 to 6.30.
The result for `O=S(=O)(NC1(c2ccc(F)cc2)CC1)c1cc(Cl)cc(Cl)c1O` [I-180] reads 4.70 to 6.30; that for `Cc1c(CNS(=O)(=O)c2cc(Cl)cc(Cl)c2O)n(C)c2ccccc12` [I-181], 4.70 to 6.30.
Then `O=S(=O)(Nc1cc(F)cc(N2CCOCC2)c1)c1cc(Cl)cc(Cl)c1O` [I-182], with 4.70 to 6.30; and `O=S(=O)(NC1CCN(c2ccccc2)C1)c1cc(Cl)cc(Cl)c1O` (centres unmarked) [I-183], with 4.70 to 6.30; and `CC(NS(=O)(=O)c1cc(Cl)cc(Cl)c1O)c1ccc2c(c1)NC(=O)CO2` (centres unmarked) [I-184], with 4.70 to 6.30.
The result for `O=S(=O)(NCC1COc2ccccc2C1)c1cc(Cl)cc(Cl)c1O` (centres unmarked) [I-185] reads 4.70 to 6.30; that for `O=S(=O)(Nc1cccc2cccc(F)c12)c1cc(Cl)cc(Cl)c1O` [I-186], 4.70 to 6.30.
Turning to `O=S(=O)(NCC1(Cc2ccc(F)cc2)CC1)c1cc(Cl)cc(Cl)c1O` [I-187], the pIC50 is 4.70 to 6.30.

The values are drawn from patent publication US11555012B2 (Nimbus Artemis, Inc., priority 2018, dated 2023).
